Laboratory results from PMC12024264, “Frog Skin Peptides Hylin-a1, AR-23, and RV-23: Promising Tools Against Carbapenem-Resistant Escherichia coli and Klebsiella pneumoniae Infections” (Antibiotics, 2025).
In brackets after ≈: the same amount, converted by molar mass. Where two headings read alike, the source gives them in different places.

Tests used:
Assay in all cases: Antibiotic resistance profile of clinical isolate (Table S1)
K. pneumoniae 1711 = format: cell-based, Klebsiella pneumoniae; settings: Table S1, K. pneumoniae 1711
Description: (§1) Each strain was grown in Mueller Hinton Broth (MH Broth), and 5 × 10^5 CFU/mL was used to evaluate antibacterial activity. Clinical carbapenem-resistant K. pneumoniae and E. coli isolates were collected at the AOU of Virology and Microbiology of the University of Campania “Luigi Vanvitelli”. […]
(§2) Table S1. Antibiotic resistance profile of K. pneumoniae and E. coli clinical isolates . MIC: Minimum Inhibitory
(§3) Concentration was expressed in µg/mL; S: Sensible; I: Intermediate; R: Resistant.
(§4) Antibiotic Resistance Profile of the Clinical Isolated Bacteria
(§5) Antibiotics MIC (µg/mL) Interpretation […]

K. pneumoniae 1746 = format: cell-based, Klebsiella pneumoniae
Description: as §1, §2, §3, §4, §5

K. pneumoniae 311 = format: cell-based, Klebsiella pneumoniae
Description: as §1, §2, §3, §4, §5

K. pneumoniae 1745 = format: cell-based, Klebsiella pneumoniae; settings: Table S1, K. pneumoniae 1745
Description: as §1, §2, §3, §4, §5

E. coli 1376 = format: cell-based, Escherichia coli
Description: as §1, §2, §3, §4, §5

E. coli 2267 = format: cell-based, Escherichia coli; settings: Table S1, E. coli 2267
Description: as §1, §2, §3, §4, §5

E. coli 3140 = format: cell-based, Escherichia coli
Description: as §1, §2, §3, §4, §5

E. coli 716 = format: cell-based, Escherichia coli
Description: as §1, §2, §3, §4, §5

E. coli 1441 = format: cell-based, Escherichia coli
Description: as §1, §2, §3, §4, §5

[1] = Klebsiella pneumoniae, read-out: MIC
[2] = Escherichia coli, read-out: MIC

Compound	MIC (K. pneumoniae 1711; [1])	Interpretation (K. pneumoniae 1711)	MIC (K. pneumoniae 1746; Klebsiella pneumoniae, 1746)	Interpretation (K. pneumoniae 1746; Table S1, K. pneumoniae 1746)	MIC (K. pneumoniae 311; Klebsiella pneumoniae, 311)	Interpretation (K. pneumoniae 311; Table S1, K. pneumoniae 311)	MIC (K. pneumoniae 1745; [1])	Interpretation (K. pneumoniae 1745)	MIC (E. coli 1376; Escherichia coli, 1376)	Interpretation (E. coli 1376; Table S1, E. coli 1376)	Interpretation (E. coli 2267)	Interpretation (E. coli 3140; Table S1, E. coli 3140)	Interpretation (E. coli 716; Table S1, E. coli 716)	Interpretation (E. coli 1441; Table S1, E. coli 1441)	MIC (K. pneumoniae 1711)	MIC (K. pneumoniae 1746; Table S1, K. pneumoniae 1746)	MIC (K. pneumoniae 311; Table S1, K. pneumoniae 311)	MIC (K. pneumoniae 1745)	MIC (E. coli 1376; Table S1, E. coli 1376)	MIC (E. coli 1441; Table S1, E. coli 1441)	further results
CO/N=C(\C(=O)N[C@@H]1C(=O)N2C(C(=O)O)=C(CSc3nc(=O)c(=O)[nH]n3C)CS[C@H]12)c1csc(N)n1 [Ceftriaxone]	> 4 µg/mL	R	> 4 µg/mL	R	> 4 µg/mL	R	> 4 µg/mL	R	> 4 µg/mL	R	R	S	R	R	–	–	–	–	–	–	MIC (E. coli 2267; [2]): > 4 µg/mL; MIC (E. coli 3140; Escherichia coli, 3140): ≤ 0.5 µg/mL; MIC (E. coli 716; Escherichia coli, 716): > 4 µg/mL; MIC (E. coli 1441; Escherichia coli, 1441): > 4 µg/mL
Amoxicillin/clavulanate	–	R	–	R	–	R	–	R	–	R	R	R	R	R	> 32/2	> 32/2	> 32/2	> 32/2	> 32/2	> 32/2	–
C[C@H]1COc2c(N3CCN(C)CC3)c(F)cc3c(=O)c(C(=O)O)cn1c23 [Levofloxacin]	> 1 µg/mL	R	1 µg/mL (≈ 2.77 µM)	I	> 1 µg/mL	R	> 1 µg/mL	R	> 1 µg/mL	R	R	S	R	S	–	–	–	–	–	–	MIC (E. coli 2267; [2]): > 1 µg/mL; MIC (E. coli 3140; Escherichia coli, 3140): ≤ 0.25 µg/mL; MIC (E. coli 716; Escherichia coli, 716): > 1 µg/mL; MIC (E. coli 1441; Escherichia coli, 1441): ≤ 0.25 µg/mL
Ceftolozano tazobactam	–	R	–	R	–	R	–	R	–	R	R	R	R	R	> 4/4	> 4/4	> 4/4	> 4/4	> 4/4	> 4/4	MIC (E. coli 2267): > 4/4; MIC (E. coli 3140; Table S1, E. coli 3140): > 4/4; MIC (E. coli 716; Table S1, E. coli 716): > 4/4
Trimethoprim/sulfamethoxazole	–	R	–	S	–	S	–	R	–	R	R	S	R	S	> 4/76	≤ 1/19	2/38	> 4/76	> 4/76	≤ 1/19	MIC (E. coli 2267): > 4/76; MIC (E. coli 3140; Table S1, E. coli 3140): ≤ 1/19; MIC (E. coli 716; Table S1, E. coli 716): > 4/76
CC(C)(O/N=C(\C(=O)N[C@@H]1C(=O)N2C(C(=O)[O-])=C(C[n+]3ccccc3)CS[C@H]12)c1csc(N)n1)C(=O)O [Ceftazidime]	> 16 µg/mL	R	> 16 µg/mL	R	> 16 µg/mL	R	> 16 µg/mL	R	> 16 µg/mL	R	R	R	R	R	–	–	–	–	–	–	MIC (E. coli 2267; [2]): > 16 µg/mL; MIC (E. coli 3140; Escherichia coli, 3140): 16 µg/mL (≈ 29.3 µM); MIC (E. coli 716; Escherichia coli, 716): > 16 µg/mL; MIC (E. coli 1441; Escherichia coli, 1441): > 16 µg/mL
Meropenem-vaborbactam	–	R	–	S	–	S	–	R	–	R	R	S	R	S	> 8/8	≤ 2/8	4/ 8	> 8/8	> 8/8	≤ 2/8	MIC (E. coli 3140; Table S1, E. coli 3140): ≤ 2/8; MIC (E. coli 716; Table S1, E. coli 716): > 32/2
